Measured values reported in US12577594B2, “Engineered microorganisms and methods for improved aldehyde dehydrogenase activity” (Genomatica, Inc., priority 2019, dated 2026).

Key:
Assay in all cases: Kinetic characterization of purified Ald with varied substrate CoA (Example 4, Table 5)
[1] = system: Collinsella sp. GD7 aldehyde dehydrogenase (Ald), SEQ ID NO: 60; assay type: biochemical; conditions: for Catalytic efficiency kcat/KM / Km / Turnover number kcat: purified protein, substrate CoA varied, conditions similar to Example 1 (0.1 M Tris-HCl, pH 7.5)
Procedure: (§1) The lysates (5 μl) were added to an assay mixture to result in a total volume of 20 μL with final concentrations of 0.1 M Tris-HCl, pH 7.5, 2.5 mM adipyl-CoA (AdCoA), and either 0.5 mM NADH or 0.5 mM NADPH. This assay was used to screen all of the Ald enzyme candidates. Some Ald candidates were also assayed using succinyl-CoA (SuCoA) or acetyl-CoA (AcCoA) as substrates. AdCoA, SuCoA, and AcCoA were obtained from commercial suppliers. Activity was monitored by a linear decrease in fluorescence of NADH or NADPH in the presence of the CoA substrate.
(§2) Kinetic characterization was done under similar conditions as the lysate screening described in Example 1; however, in this case purified protein was used instead of cell lysates. Each of the Acidaminococcus massiliensis Ald (SEQ ID NO:28), the Collinsella sp. GD7 Ald (SEQ ID NO:60), and the Romboutsia lituseburensis DSM Ald (SEQ ID NO:107) was purified using affinity chromatography. In these assays, the concentration each of the substrate CoAs was varied to determine the turnover number (kcat), the affinity of the enzyme for the substrate (KM) of the enzyme, the catalytic efficiency (kcat/KM) of each selected Ald enzyme for each substrate were determined and shown in the Table 5 below.
(§3) Catalytic efficiency (kcat/KM) of the various aldehyde dehydrogenases using various substrates were plotted in a bar graph for comparison (FIG. 3A).

[2] = target: Romboutsia lituseburensis DSM aldehyde dehydrogenase (Ald), SEQ ID NO: 107 (Romboutsia lituseburensis, UniProt A0A1G9MGA8); assay type: biochemical; conditions: ratio of kcat/KM
Procedure: as §1, §2, §3

[3] = system: Acidaminococcus massiliensis aldehyde dehydrogenase (Ald), SEQ ID NO: 28; assay type: biochemical; conditions: for Catalytic efficiency kcat/KM / Km / Turnover number kcat: purified protein, substrate CoA varied, conditions similar to Example 1 (0.1 M Tris-HCl, pH 7.5)
Procedure: as §1, §2, §3

[4] = system: CC(C)(COP(=O)(O)OP(=O)(O)OC[C@H]1O[C@@H](n2cnc3c(N)ncnc32)[C@H](O)[C@@H]1OP(=O)(O)O)[C@@H](O)C(=O)NCCC(=O)NCCSC(=O)CCC(=O)O; assay type: biochemical, Romboutsia lituseburensis DSM; conditions: other: purified protein, conditions similar to Example 1 (0.1 M Tris-HCl, pH 7.5)
Procedure: as §1, §2, §3

[5] = system: CC(C)(COP(=O)(O)OP(=O)(O)OC[C@H]1O[C@@H](n2cnc3c(N)ncnc32)[C@H](O)[C@@H]1OP(=O)(O)O)[C@@H](O)C(=O)NCCC(=O)NCCSC(=O)CCCCC(=O)O; assay type: biochemical, Romboutsia lituseburensis DSM; conditions: other: purified protein, conditions similar to Example 1 (0.1 M Tris-HCl, pH 7.5)
Procedure: as §1, §2, §3

[6] = system: CC(=O)SCCNC(=O)CCNC(=O)[C@H](O)C(C)(C)COP(=O)(O)OP(=O)(O)OC[C@H]1O[C@@H](n2cnc3c(N)ncnc32)[C@H](O)[C@@H]1OP(=O)(O)O; assay type: biochemical, Romboutsia lituseburensis DSM; conditions: other: purified protein, conditions similar to Example 1 (0.1 M Tris-HCl, pH 7.5)
Procedure: as §1, §2, §3

CC(C)(COP(=O)(O)OP(=O)(O)OC[C@H]1O[C@@H](n2cnc3c(N)ncnc32)[C@H](O)[C@@H]1OP(=O)(O)O)[C@@H](O)C(=O)NCCC(=O)NCCSC(=O)CCCCC(=O)O [Adipyl-CoA]
Catalytic efficiency kcat/KM [1]: 150 M⁻¹ s⁻¹ | Km [1]: 100 µM | Turnover number kcat [1]: 0.015 s⁻¹ | Catalytic efficiency (kcat/KM) for adipyl-CoA over succinyl-CoA ([1]; ratio of kcat/KM, FIG. 3B): higher catalytic efficiency for adipyl-CoA over succinyl-CoA | Catalytic efficiency (kcat/KM) for adipyl-CoA over acetyl-CoA ([1]; ratio of kcat/KM, FIG. 3C): higher catalytic efficiency for adipyl-CoA over acetyl-CoA | Catalytic efficiency (kcat/KM) for adipyl-CoA over succinyl-CoA ([2]; FIG. 3B): higher catalytic efficiency for adipyl-CoA over succinyl-CoA | Catalytic efficiency (kcat/KM) for adipyl-CoA over acetyl-CoA ([2]; FIG. 3C): higher catalytic efficiency for adipyl-CoA over acetyl-CoA | Catalytic efficiency kcat/KM [3]: 3000 M⁻¹ s⁻¹ | Km [3]: 810 µM | Turnover number kcat [3]: 2.5 s⁻¹ | Catalytic efficiency (kcat/KM) for adipyl-CoA over succinyl-CoA ([3]; ratio of kcat/KM, FIG. 3B): higher catalytic efficiency for adipyl-CoA over succinyl-CoA | Catalytic efficiency (kcat/KM) for adipyl-CoA over acetyl-CoA ([3]; ratio of kcat/KM, FIG. 3C): higher catalytic efficiency for adipyl-CoA over acetyl-CoA

Romboutsia lituseburensis DSM aldehyde dehydrogenase (Ald), SEQ ID NO: 107 (Romboutsia lituseburensis DSM 797)
Km [4]: 220 µM | kcat [4]: 0.056 s⁻¹ | kcat/Km [4]: 250 M⁻¹ s⁻¹ | Km [5]: 240 µM | kcat [5]: 1.0 s⁻¹ | kcat/Km [5]: 4000 M⁻¹ s⁻¹ | Km [6]: 310 µM | kcat [6]: 0.013 s⁻¹ | kcat/Km [6]: 40 M⁻¹ s⁻¹

CC(C)(COP(=O)(O)OP(=O)(O)OC[C@H]1O[C@@H](n2cnc3c(N)ncnc32)[C@H](O)[C@@H]1OP(=O)(O)O)[C@@H](O)C(=O)NCCC(=O)NCCSC(=O)CCC(=O)O [Succinyl-CoA]
Catalytic efficiency kcat/KM [1]: 26 M⁻¹ s⁻¹ | Km [1]: 400 µM | Turnover number kcat [1]: 0.010 s⁻¹ | Catalytic efficiency kcat/KM [3]: 290 M⁻¹ s⁻¹ | Km [3]: 790 µM | Turnover number kcat [3]: 0.23 s⁻¹

CC(=O)SCCNC(=O)CCNC(=O)[C@H](O)C(C)(C)COP(=O)(O)OP(=O)(O)OC[C@H]1O[C@@H](n2cnc3c(N)ncnc32)[C@H](O)[C@@H]1OP(=O)(O)O [Acetyl-CoA]
Catalytic efficiency kcat/KM [1]: 1.6 M⁻¹ s⁻¹ | Km [1]: > 2000 µM | Catalytic efficiency kcat/KM [3]: 100 M⁻¹ s⁻¹ | Km [3]: 380 µM | Turnover number kcat [3]: 0.040 s⁻¹
